Source: US20130150430A1, “Methods for Impairing the P53/HDM2 Auto-Regulatory Loop in Multiple Myeloma Development Using mIR-192, mIR-194 and mIR-215” (THE OHIO STATE UNIVERSITY, priority 2011, published 2013)

Legend:
Type in all cases: cell-based, human
MM1s cells = experiment: Caspase-3 activation assay with MI-219 in miRNA-transfected cells; settings: MI-219 in presence of the miRNA; p<0.001
Experimental: FIG. 5C: Apoptotic effect at different concentrations and time points for each miRNA transfected cells was assessed by caspase-3 activation assay.
Nocodazole was (Sigma-Aldrich) was dissolved in DMSO as a stock solution of 10 mg/ml for cell cycle arrest in G2/M phase. Cells were first arrested and synchronized in G2/M phase by growth in 80 nM nocodazole for 16 hr. Cells were then washed and fresh medium added. After 6 hr, cell cycle analysis was performed by propidium iodide staining. Corresponding amounts of DMSO alone were added in control experiments. In experiments involving transfection and MI-219 treatment, the cells were first transfected, incubated for 24 hr, and then treated with the chemotherapeutic drug for 24 hr. For DNA content analysis, cells were fixed in methanol at −20° C., washed again, rehydrated, re-suspended in PBS containing 50 μg/ml propidium iodide (PI) and 50 μg/ml RNase A, and analyzed by flow cytometry (Becton Dickinson). For detection of caspase 3 activity, KMS28BM and MM1s cells were cultured in 96-well plates and treated with Nutlin-3a. After the treatment the cells were analyzed using Caspase-Glo 3 Assay kit (Promega) according to the manufacturer's instructions. Continuous variables were expressed as mean values ± standard deviation (s.d.).

[1] = system: IGF-1R and IGF-1 in MM1s cells; experiment: Western blot of IGF-1R and IGF-1 after miRNA transfection; settings: pre-miRNA transfected
Experimental: FIG. 6A, FIG. 6B: Western blot showing IGF-1R and IGF-1 expression after miR-192 and miR-215 transfection using pre (FIG. 6A) and ASOs (FIG. 6B) for miR-192, miR-215, miR-194 and Scr in MM1s cells treated for 12 hr with Nutlin-3a.
Samples were extracted in 15 mM Tris.Cl, pH 7.5/120 mM NaCl/25 mM KCl/2 mM EGTA/0.1 mM DTT/0.5% Triton X-100/[…] leupeptin/0.5 mM PMSF. Total protein (35 μg) from each sample was separated on a 4-20% Tris-HCl-Criterion precast gel Bio-Rad (cat#345-0032, Hercules, Calif.) and transferred to a poly(vinylidene difluoride) filter (Millipore). The filter was blocked in 5% nonfat dry milk, incubated with the specific antibody, washed, and probed with secondary antibody IgG conjugated to horseradish peroxidase (Santa Cruz Biotechnology), and developed with enhanced chemiluminescence (Amersham Pharmacia). […]

[2] = system: p53, MDM2 and p21 in MM1s and NCI-H929 cells; experiment: Western blot of p53, MDM2, p21 after miRNA or ASO transfection and Nutlin-3a; settings: 72 hr after transfection, 12 hr Nutlin-3a (10 μM); for expression of MDM2 protein: both cell lines; for level of p53 and p21: vs Scr-transfected cells, p<0.001
Experimental: FIG. 4A: MM1s and NCIH929 cells (pre-miRNA-192, pre-miRNA-194, pre-miRNA-215, Scr sequence-transfected) were harvested at 72 hr after transfection and 12 hr Nutlin-3a treatment (10 μM). Whole cell lysates were subjected to Western blotting using p53, MDM2, p21, and Gapdh antibodies. Densitometric analysis showing the effect of miR-194 (white bars), miR-192 (grey bars), miR-215 (black bars) compared to Scr sequence (green bars) transfected cells of endogenous p53, MDM2 and p21 in MM1s (FIG. 4B) and NCI-H929 (FIG. 4C) Nutlin-3a treated.
FIG. 4D: Immununoblot analysis showing p53, MDM2 and p21 protein expression after 48 hr of miR192, miR-194, miR-215 (pool) and Scr ASOs transfection in MM1s and NCI-H929 cells after 12 hr of treatment with 10 μM Nutlin-3a.
Samples were extracted in 15 mM Tris.Cl, pH 7.5/120 mM NaCl/25 mM KCl/2 mM EGTA/0.1 mM DTT/0.5% Triton X-100/[…] leupeptin/0.5 mM PMSF. Total protein (35 μg) from each sample was separated on a 4-20% Tris-HCl-Criterion precast gel Bio-Rad (cat#345-0032, Hercules, Calif.) and transferred to a poly(vinylidene difluoride) filter (Millipore). The filter was blocked in 5% nonfat dry milk, incubated with the specific antibody, washed, and probed with secondary antibody IgG conjugated to horseradish peroxidase (Santa Cruz Biotechnology), and developed with enhanced chemiluminescence (Amersham Pharmacia). Immunoblot analyses were performed using the following antibodies: p53 (sc-53394, Santa Cruz Biotechnology), MDM2 (sc-965, Santa Cruz Biotechnology), phospho-MDM2 (Cat#3521, Cell Signaling), c-MYC (cs-40, Santa Cruz Biotechnology), IGF-1 (sc-9013, Santa Cruz Biotechnology), IGF-1R (Cat#3027, Cell Signaling), total-Akt (Cat#9272, Cell signaling), phospho-Akt (Cat#4060, Cell Signaling), total-S6 (Cat#2217, Cell Signaling), phospho-S6 (Cat#2211, Cell Signaling), p21 (sc-817, Santa Cruz Biotechnology), α-PUMA (Cat#4976, Cell Signaling), GAPDH (Cat#2118, Cell Signaling). Filters were reprobed with enzyme-conjugated antibodies to GFP and β-actin (Santa Cruz Biotechnology).
MM cells (from MM subjects or from cell lines) non-transfected or transfected with pre- or ASOs miR-192, miR-215, miR-194 and Scr sequence as described above, were treated with MDM2 inhibitor (Nutlin3a and MI-219). Fresh CD138+ primary PCs isolated from new diagnosed MM subjects as previously described were maintained in culture for 24 hr and then treated for 24 hr with 10 μM Nutlin-3a (Cayman Chemical Company) or vehicle (DMSO). For transfected cells at 24 hrs after transfection MM cells were treated with 10 μM Nutlin-3a (Cayman Chemical Company) or DMSO vehicle only at different time points. […]

## miR-215: microRNA, p53-activated, down-regulated in MM; transfected as miRNA precursor (Ambion) or lentivector; SEQ ID NO:58 (AUGACCUAUGAAUUGACAGAC; listed as RNA, chemistry not given here; listed as Homo sapiens)
MM1s cells
  caspase-3 activation induced by MI-219: higher caspase-3 activation
[1]
  IGF-1R and IGF-1 protein levels: decreased
[2]
  expression of MDM2 protein: dramatically decreased
  level of p53 and p21: significantly increased

## miR-192: microRNA, p53-activated, down-regulated in MM; transfected as miRNA precursor (Ambion) or lentivector; SEQ ID NO:56 (CUGACCUAUGAAUUGACAGCC; listed as RNA, chemistry not given here; listed as Homo sapiens)
MM1s cells
  caspase-3 activation induced by MI-219: higher caspase-3 activation
[1]
  IGF-1R and IGF-1 protein levels: decreased
[2]
  expression of MDM2 protein: dramatically decreased
  level of p53 and p21: significantly increased
